Test results: PMC13415951 (Journal of Experimental Botany, 2026)
Where a chain is given by its changes, count along the chain named.

Columns and labels:
OsUGT79 Q202A = target: T1, OsUGT79 Q202A (Oryza sativa subsp. japonica, UniProt Q7XT97, Q202A); type: biochemical
T1 sequence (Q7XT97 1-466 Q202A): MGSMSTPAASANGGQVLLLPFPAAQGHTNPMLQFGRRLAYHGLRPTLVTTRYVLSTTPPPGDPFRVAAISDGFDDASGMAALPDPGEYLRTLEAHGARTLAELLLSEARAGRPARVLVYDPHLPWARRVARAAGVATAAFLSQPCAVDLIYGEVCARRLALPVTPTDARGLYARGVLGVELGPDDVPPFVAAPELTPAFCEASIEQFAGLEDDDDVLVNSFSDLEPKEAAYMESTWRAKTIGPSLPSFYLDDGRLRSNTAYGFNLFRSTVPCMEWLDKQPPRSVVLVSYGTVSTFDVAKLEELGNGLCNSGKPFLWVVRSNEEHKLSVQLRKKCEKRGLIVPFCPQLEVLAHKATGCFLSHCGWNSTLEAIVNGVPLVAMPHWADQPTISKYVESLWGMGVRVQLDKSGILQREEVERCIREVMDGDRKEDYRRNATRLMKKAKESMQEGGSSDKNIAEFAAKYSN

[1] = test system: roots of wheat cultivar Apogee seedlings; experiment: Extracts from wheat roots exposed to mycotoxin, LC-MS/MS; type: in vivo, Triticum aestivum; settings: 24 h
Description: Seedlings of Apogee and B. distachyon with roots 1–2 cm long were incubated in full-strength MS without sucrose and containing 50 mg l^−1 DON and/or either 50 mg l^−1 CUL (Apogee) or 10 mg l^−1 CUL (B. distachyon). The seedlings were placed into sterile 2 ml tubes containing 500 µl medium such that only the roots were submerged. After 24 h incubation under the same conditions as specified above for the elongation assays, the roots were cut from the seedlings, washed with 10% ethanol, briefly dried with tissue paper, and weighed. The roots were then ground in the Retsch Ball Mill MM 400 for 1 min at 30× s^−1 using two 5 mm steel balls, after which 500 µl methanol was added and the roots were extracted for 2 h at room temperature. The concentrations of DON, D3G, CUL, and CUL-glucosides were determined by LC-MS/MS.
DON, D3G, CUL, and CUL-glucosides were measured on a 6500+ QTrap MS/MS instrument (Sciex) coupled to an Agilent 1290 UHPLC system. A Kinetex C18 column (150×2.1 mm, 2.6 µm particle size; Phenomenex, Torrance, USA) was used for separation at 30 °C. […] DON and D3G were detected in negative ion mode first, and after 4.5 min the polarity was changed to positive electrospray mode to detect CUL and CUL-glucosides. […] D3G was determined with the [M+CH3COO]^− ion as the precursor (DP −80 V) with the following SRM settings: m/z 517.2 > 427.1 (CE −30 eV) and m/z 517.2 > 59.1 (CE −85 eV). […]

[2] = target: T2, OsUGT79 H122A/L123A/Q202A (Oryza sativa subsp. japonica, UniProt Q7XT97, H122A/L123A/Q202A); experiment: biochemical; type: biochemical
T2 sequence (Q7XT97 1-466 H122A/L123A/Q202A): T1 sequence (Q7XT97 1-466 Q202A) with H122A, L123A

[3] = test system: marine and terrestrial (human pathogenic) fungi; design: method as in Strongman et al., 1987; settings: ref Strongman et al., 1987; cited from earlier work

SMILES: CC1(C)CCC[C@]2(C)[C@@H]3[C@H]1[C@@H](O)[C@@]2(C)C[C@H]3O [CUL, culmorin]
- Specific activity (glucoside formation) (OsUGT79 Q202A): 2.23 ± 0.08 nmol/min/mg
- Effect of CUL on DON uptake by the roots ([1]; 50 mg l^−1 DON with 50 mg l^−1 CUL): did not inhibit DON uptake
- Reduction in the D3G concentration in the roots caused by CUL ([1]; 50 mg l^−1 DON with 50 mg l^−1 CUL vs DON alone): ~6 fold
- K iu of CUL (uncompetitive inhibition, DON as variable substrate) [2]: 217 µM
- Ki [2]: 65 µM
- Anti-fungal activity [3]: Weak anti-fungal activity
